In PubChem BioAssay AID248 (DTP/NCI, 2004):
Toxic doses and inconclusive results are not listed. Cut-off read from the data, not from the text of the source: active = T/C of 150% or more; inactive = T/C below 125%.

System: L1210 leukemia ip in BDF1 mice, survival T/C
Test: NCI In Vivo Anticancer Drug Screen. Data for tumor model L1210 Leukemia (intraperitoneal) in B6D2F1 (BDF1) mice
Details: endpoint: mean survival time, higher = longer survival
How it was run: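 Transplanted-tumor mice were given test agent; controls received vehicle only. Survival readings from the two groups were divided (treated over control).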

[1] = dose: 100.0 mg/kg/injection, schedule: Q01DX009 (ip), vehicle: saline with Tween-80
[2] = dose: 100.0 mg/kg/injection, schedule: Q04DX003 (ip), vehicle: saline with Tween-80
[3] = dose: 200.0 mg/kg/injection, schedule: Q01DX009 (ip), vehicle: saline with Tween-80
[4] = dose: 200.0 mg/kg/injection, schedule: Q04DX003 (ip), vehicle: saline with Tween-80
[5] = dose: 400.0 mg/kg/injection, schedule: Q01DX009 (ip), vehicle: saline with Tween-80
[6] = dose: 400.0 mg/kg/injection, schedule: Q04DX003 (ip), vehicle: saline with Tween-80
[7] = dose: 4.0 mg/kg/injection, schedule: Q01DX009 (ip), vehicle: saline
[8] = dose: 100.0 mg/kg/injection, schedule: Q01DX001 (ip), vehicle: saline
[9] = dose: 200.0 mg/kg/injection, schedule: Q01DX001 (ip), vehicle: saline
[10] = dose: 400.0 mg/kg/injection, schedule: Q01DX001 (ip), vehicle: saline

Measured: T/C

O=P1(c2ccccc2)CCc2[nH]c3ccc(Cl)cc3c2C1 (stereo not given)
inactive: dose: 100.0 mg/kg/injection, schedule: Q04DX003 (ip), vehicle: Klucel (hydroxypropylcellulose) (HPC) 100 % of control | dose: 200.0 mg/kg/injection, schedule: Q04DX003 (ip), vehicle: Klucel (hydroxypropylcellulose) (HPC) 107 % of control | dose: 400.0 mg/kg/injection, schedule: Q04DX003 (ip), vehicle: Klucel (hydroxypropylcellulose) (HPC) 112 % of control

Cc1ccc(C(=O)c2ccccc2C(=O)O)cc1N
inactive: [1] 105 % of control | [2] 99 % of control | [3] 97 % of control | [4] 99 % of control | [5] 106 % of control | [6] 97 % of control

CC1(C)N=C(N)N=C(N)N1c1ccc(CCCC(=O)Nc2ccc(S(=O)(=O)F)cc2)cc1
inactive: dose: 0.8 mg/kg/injection, schedule: Q01DX009 (ip), vehicle: saline 97 % of control | [7] 98 % of control | dose: 20.0 mg/kg/injection, schedule: Q01DX009 (ip), vehicle: saline 104 % of control | dose: 100.0 mg/kg/injection, schedule: Q01DX009 (ip), vehicle: saline 114 % of control | dose: 500.0 mg/kg/injection, schedule: Q01DX009 (ip), vehicle: saline 123 % of control

O=C(n1ccnc1)C(F)(F)C(F)(F)C(F)(F)F
inactive: dose: 100.0 mg/kg/injection, schedule: Q01DX001 (ip), vehicle: saline sonified 101 % of control | dose: 100.0 mg/kg/injection, schedule: Q04DX003 (ip), vehicle: saline 96 % of control | dose: 200.0 mg/kg/injection, schedule: Q01DX001 (ip), vehicle: saline sonified 110 % of control | dose: 200.0 mg/kg/injection, schedule: Q04DX003 (ip), vehicle: saline 96 % of control | dose: 400.0 mg/kg/injection, schedule: Q01DX001 (ip), vehicle: saline sonified 106 % of control | dose: 400.0 mg/kg/injection, schedule: Q04DX003 (ip), vehicle: saline 89 % of control

COc1cc(NCC(O)C(O)C(O)CO)c([N+](=O)[O-])cc1OC (stereo not given)
inactive: [8] 92 % of control | [9] 99 % of control | [10] 100 % of control

CCOC(=O)c1cccc(N(CCOS(C)(=O)=O)CCOS(C)(=O)=O)c1
inactive: dose: 16.0 mg/kg/injection, schedule: Q01DX015 (ip), vehicle: saline 110 % of control | dose: 32.0 mg/kg/injection, schedule: Q01DX015 (ip), vehicle: saline 118 % of control | dose: 64.0 mg/kg/injection, schedule: Q01DX015 (ip), vehicle: saline 111 % of control

CC(C)COC(=O)c1ccc(NC(=O)Nc2ccccc2)cc1
inactive: [1] 93 % of control | [2] 92 % of control | [3] 88 % of control | [4] 88 % of control | [5] 97 % of control | [6] 87 % of control

C[C@H]1[C@H](O)[C@H]2[C@@H](CCC3=CC(=O)CC[C@@]32C)[C@@H]2CC[C@H](O)[C@@]12C
inactive: dose: 50.0 mg/kg/injection, schedule: Q01DX001 (sc), vehicle: steriod suspending solution 102 % of control | dose: 100.0 mg/kg/injection, schedule: Q01DX001 (sc), vehicle: steriod suspending solution 102 % of control | dose: 200.0 mg/kg/injection, schedule: Q01DX001 (sc), vehicle: steriod suspending solution 102 % of control | dose: 400.0 mg/kg/injection, schedule: Q01DX001 (sc), vehicle: steriod suspending solution 96 % of control

O=C(CCBr)c1ccc(Cl)cc1
inactive: dose: 6.25 mg/kg/injection, schedule: Q01DX009 (ip), vehicle: saline with Tween-80 93 % of control | dose: 12.5 mg/kg/injection, schedule: Q01DX009 (ip), vehicle: saline with Tween-80 91 % of control | dose: 25.0 mg/kg/injection, schedule: Q01DX009 (ip), vehicle: saline with Tween-80 93 % of control

CC(CNN=C(N)N)NN=C(N)N (stereo not given)
inactive: dose: 30.0 mg/kg/injection, schedule: Q01DX Z (ip), vehicle: saline 116 % of control | dose: 60.0 mg/kg/injection, schedule: Q01DX Z (ip), vehicle: saline 100 % of control | dose: 120.0 mg/kg/injection, schedule: Q01DX Z (ip), vehicle: saline 96 % of control

Nc1nc2c(c(=O)[nH]1)N1CN(c3ccc(C(=O)NC(CCC(=O)O)C(=O)O)cc3)CCC1CN2 (stereo not given)
inactive: dose: 1.0 mg/kg/injection, schedule: Q01DX009 (ip), vehicle: saline 94 % of control | dose: 2.0 mg/kg/injection, schedule: Q01DX009 (ip), vehicle: saline 100 % of control | [7] 89 % of control | dose: 4.0 mg/kg/injection, schedule: Q04DX003 (ip), vehicle: saline 94 % of control | dose: 8.0 mg/kg/injection, schedule: Q01DX009 (ip), vehicle: saline 100 % of control | dose: 8.0 mg/kg/injection, schedule: Q04DX003 (ip), vehicle: saline 109 % of control | dose: 16.0 mg/kg/injection, schedule: Q01DX009 (ip), vehicle: saline 94 % of control | dose: 16.0 mg/kg/injection, schedule: Q04DX003 (ip), vehicle: saline 87 % of control | dose: 32.0 mg/kg/injection, schedule: Q04DX003 (ip), vehicle: saline 101 % of control | dose: 64.0 mg/kg/injection, schedule: Q04DX003 (ip), vehicle: saline 95 % of control

CSCc1ccccn1
inactive: dose: 50.0 mg/kg/injection, schedule: Q01DX001 (ip), vehicle: saline 106 % of control | [8] 101 % of control | [9] 93 % of control | [10] 104 % of control

CCSSCC(N)C(=O)O (stereo not given)
inactive: dose: 100.0 mg/kg/injection, schedule: Q01DX001 (ip), vehicle: other 94 % of control | dose: 200.0 mg/kg/injection, schedule: Q01DX001 (ip), vehicle: other 103 % of control | dose: 400.0 mg/kg/injection, schedule: Q01DX001 (ip), vehicle: other 103 % of control

CCN=C(c1ccc(NC(=O)c2ccc(C(=O)Nc3ccc(C(=NCC)N(CC)C(=O)NC(C)C)cc3)cc2)cc1)N(CC)C(=O)NC(C)C
inactive: dose: 6.0 mg/kg/injection, schedule: Q01DX015 (ip), vehicle: methylcellulose (MC) 89 % of control | dose: 25.0 mg/kg/injection, schedule: Q01DX015 (ip), vehicle: methylcellulose (MC) 102 % of control | dose: 37.0 mg/kg/injection, schedule: Q01DX015 (ip), vehicle: methylcellulose (MC) 96 % of control

CN(C)NC(=O)CC(NCc1ccccc1)C(=O)O (stereo not given)
inactive: [1] 94 % of control | [3] 95 % of control | [5] 95 % of control

O=[N+]([O-])c1ccc(/C=N/N2CCCCC2)s1
inactive: [2] 97 % of control | [4] 92 % of control | [6] 89 % of control

Cc1ccc(C(=O)NN2C(N)=NC(N)=NC2(C)C)cc1
inactive: dose: 100.0 mg/kg/injection, schedule: Q01DX009 (ip), vehicle: saline sonified 111 % of control | dose: 200.0 mg/kg/injection, schedule: Q01DX009 (ip), vehicle: saline sonified 92 % of control
